Experimental findings from paper PMC3429506, “Screening for Novel LRRK2 Inhibitors Using a High-Throughput TR-FRET Cellular Assay for LRRK2 Ser935 Phosphorylation” (PLoS ONE, 2012) are described below.

The inhibition is the percentage by which the read-out fell short of the control.

Data set [1] has as its system LRRK2 Ser935 phosphorylation. The data set can be described thus: TR-FRET cellular assay for LRRK2 Ser935 phosphorylation (cell background not given). To be noted: result in words. The data set is classed as cell-based, human. The method, then:
Transduced cells in the 384-well assay plate were incubated with indicated inhibitors (5X, 5 µL/well) for 60 to 90 minutes. During this time, 6 X lysis buffer (Life Technologies) was supplemented with 30 nM Tb-labeled anti-LRRK2 pSer935 antibody and both protease and phosphatase inhibitor cocktails (Sigma). The complete 6 X lysis buffer was added to each well (5 µL/well) and the plates were incubated at room temperature in the dark for 2 hours. The plate was then read on an EnVision® multilabel plate reader (PerkinElmer, Waltham, MA) with excitation at 340 nm and emission 520 nm and 495 nm. […]. A sigmoidal dose-response equation with varying slope was used to fit the data and generate IC50 values. […]. The IC50 values reported in Table 1 are the averaged numbers from three independent experiments.
On the technique in general: TR-FRET usually uses a lanthanide donor and a delayed reading to cut background.

Data set [2] has as its target T1, LRRK2 wild-type (Homo sapiens, UniProt Q5S007). The data set can be described thus: TR-FRET cellular assay for LRRK2 Ser935 phosphorylation, U-2 OS cells, BacMam LRRK2-GFP wild-type. It is filed as cell-based. More on the design: This high-throughput assay utilizes cells expressing full-length human LRRK2 with a C-terminal GFP tag (LRRK2-GFP); host or cells: U-2 OS cells transduced with BacMam. To be noted: WT, +/- SD, three independent experiments, * = partial inhibition, read-out: IC50, TR-FRET cell-based assay for Ser935 phosphorylation of LRRK2. The method, then:
(§1) U-2 OS cells are maintained in growth medium (McCoy’s 5A supplemented with 10% dialyzed FBS (dFBS), 10 mM HEPES, 0.1 mM NEAA, 1 mM Sodium Pyruvate, and 100 U/mL Penicillin/100 µg/mL Streptomycin). HEK293T cells are maintained in DMEM with 10% dFBS, 10 mM HEPES, 0.1 mM NEAA and 100 U/mL Penicillin/100 µg/mL Streptomycin. SH-SY5Y cells are maintained in DMEM/F-12 medium supplemented with 10% dFBS and 100 U/mL Penicillin/100 µg/mL Streptomycin. […] GIBCO® human neural stem cells (hNSCs) were propagated as an adherent culture in StemPro® NSC SFM according to the manufacturer’s recommended protocol (Life Technologies). For BacMam transduction of U-2 OS and HEK293T, cells were harvested, mixed with various amounts of BacMam LRRK2-GFP reagent (v/v) and plated onto 6-well plates. […] Cells were assayed in 384-well format (∼20,000 cells/well) 48 hours post-transduction as above.
(§2) Transduced cells in the 384-well assay plate were incubated with indicated inhibitors (5X, 5 µL/well) for 60 to 90 minutes. During this time, 6 X lysis buffer (Life Technologies) was supplemented with 30 nM Tb-labeled anti-LRRK2 pSer935 antibody and both protease and phosphatase inhibitor cocktails (Sigma). The complete 6 X lysis buffer was added to each well (5 µL/well) and the plates were incubated at room temperature in the dark for 2 hours. […] A sigmoidal dose-response equation with varying slope was used to fit the data and generate IC50 values. Z′-factor values were calculated as: Z′-factor = 1 - [(3 × stdevno virus +3 × stdevmaxvirus)/(avgmaxvirus – avgno-virus)]. The IC50 values reported in Table 1 are the averaged numbers from three independent experiments.

The target of data set [3] is T1, LRRK2 wild-type. Briefly: TR-FRET cellular assay for LRRK2 Ser935 phosphorylation, SH-SY5Y cells, BacMam LRRK2-GFP wild-type. It is filed as cell-based. More on the design: This high-throughput assay utilizes cells expressing full-length human LRRK2 with a C-terminal GFP tag (LRRK2-GFP); host or cells: SH-SY5Y cells transduced with BacMam. To be noted: WT, +/- SD, three independent experiments, * = partial inhibition, read-out: IC50, TR-FRET cell-based assay for Ser935 phosphorylation of LRRK2. The method, then: as §1, §2

Data set [4] addresses T2, LRRK2 G2019S (Homo sapiens, UniProt Q5S007, G2019S). Briefly: TR-FRET cellular assay for LRRK2 Ser935 phosphorylation, SH-SY5Y cells, BacMam LRRK2-GFP G2019S (incl. Tocriscreen Mini library screen and follow-up). It is filed as cell-based. More on the design: This high-throughput assay utilizes cells expressing full-length human LRRK2 with a C-terminal GFP tag (LRRK2-GFP); host or cells: SH-SY5Y cells transduced with BacMam. To be noted: for IC50: three independent experiments; for inhibition at 20 µM: read-out: %Inhibition Initial screen; for Cellular TR-FRET Assay Max % Inhibition: 90 min. The method, then:
as §1, §2
40 nL of 10 mM Tocris library compounds in DMSO were dispensed into each well of the assay plate by the ECHO system. Equal volumes of DMSO were dispensed into the control wells. Cells were incubated with compounds for 90 to 120 min prior to cell lysis and detection as described above. The percent inhibition is calculated as: [(average emission ratios of DMSO control wells – average emission ratios of compound wells)/(average emission ratios of DMSO control wells – average emission ratios of LRRK2-IN-1 treated wells)] * 100. For the dose-response follow-up studies, fresh compound DMSO stock solutions were prepared from powder. […] Z′-factor value was calculated as: Z′-factor = 1 - [(3 × stdevLRRK2-IN-1+3 × stdevDMSO)/(avgDMSO – avgLRRK2-IN-1)]. The IC50 values reported in Table 2 are the averaged numbers from three independent experiments for both cellular and biochemical TR-FRET assays and one representative result of two independent experiments for the cytotoxicity assay.

Data set [5] concerns the target T2, LRRK2 G2019S. Briefly: TR-FRET cellular assay for LRRK2 Ser935 phosphorylation, U-2 OS cells, BacMam LRRK2-GFP G2019S. More on the design: This high-throughput assay utilizes cells expressing full-length human LRRK2 with a C-terminal GFP tag (LRRK2-GFP); host or cells: U-2 OS, SH-SY5Y, HEK293T cells or human neural stem cells transduced with BacMam. To be noted: G2019S, +/- SD, three independent experiments, * = partial inhibition, read-out: IC50, TR-FRET cell-based assay for Ser935 phosphorylation of LRRK2. The data set is classed as cell-based. The method, then:
as §1, §2

Data set [6] deals with T2, LRRK2 G2019S. Briefly: In vitro biochemical LRRK2 TR-FRET activity assay. To be noted: for IC50: LRRK2 G2019S, ATP 134 µM (Km,app), LRRKtide substrate, three independent experiments, read-out: Biochemical LRRK2 assay IC50 +/- SD. Here is the method:
The Biochemical LRRK2 TR-FRET activity assay was performed according to the manufacture recommended assay protocol (Life Technologies). […] After incubation at room temperature for 1 hour, the kinase reactions were stopped by addition of 10 µL of 20 mM EDTA and 4 nM Tb-anti-pERM (pLRRKtide) antibody in TR-FRET dilution buffer (Life Technologies). After a 30 minute incubation at room temperature, TR-FRET measurements were obtained on a BMG PHERAstar plate reader using LanthaScreen® filters and settings. A 16 point, 2-fold dilution series of each compound was tested in triplicate at each concentration and assays were also performed in triplicate.

The nature of a further data set: in vitro. To be noted: human.
Data set [7] deals with T1, LRRK2 wild-type. Briefly: TR-FRET cellular assay for LRRK2 Ser935 phosphorylation, HEK293T cells, BacMam LRRK2-GFP wild-type. More on the design: This high-throughput assay utilizes cells expressing full-length human LRRK2 with a C-terminal GFP tag (LRRK2-GFP); host or cells: HEK293T cells transduced with BacMam. To be noted: WT, +/- SD, three independent experiments, * = partial inhibition, read-out: IC50, TR-FRET cell-based assay for Ser935 phosphorylation of LRRK2. The method, then: as §1, §2

The target in data set [8] is T2, LRRK2 G2019S. The data set can be described thus: TR-FRET cellular assay for LRRK2 Ser935 phosphorylation, HEK293T cells, BacMam LRRK2-GFP G2019S. To be noted: +/- SD, three independent experiments, * = partial inhibition, read-out: IC50, TR-FRET cell-based assay for Ser935 phosphorylation of LRRK2. More on the design: This high-throughput assay utilizes cells expressing full-length human LRRK2 with a C-terminal GFP tag (LRRK2-GFP); host or cells: HEK293T cells transduced with BacMam. The method, then:
as §1, §2

The next data set deals with T3, GFP-LRRK2 G2019S (Homo sapiens, UniProt Q5S007, G2019S).
T3 construct: expressed in transfected cells
T3 sequence (Q5S007 whole entry G2019S): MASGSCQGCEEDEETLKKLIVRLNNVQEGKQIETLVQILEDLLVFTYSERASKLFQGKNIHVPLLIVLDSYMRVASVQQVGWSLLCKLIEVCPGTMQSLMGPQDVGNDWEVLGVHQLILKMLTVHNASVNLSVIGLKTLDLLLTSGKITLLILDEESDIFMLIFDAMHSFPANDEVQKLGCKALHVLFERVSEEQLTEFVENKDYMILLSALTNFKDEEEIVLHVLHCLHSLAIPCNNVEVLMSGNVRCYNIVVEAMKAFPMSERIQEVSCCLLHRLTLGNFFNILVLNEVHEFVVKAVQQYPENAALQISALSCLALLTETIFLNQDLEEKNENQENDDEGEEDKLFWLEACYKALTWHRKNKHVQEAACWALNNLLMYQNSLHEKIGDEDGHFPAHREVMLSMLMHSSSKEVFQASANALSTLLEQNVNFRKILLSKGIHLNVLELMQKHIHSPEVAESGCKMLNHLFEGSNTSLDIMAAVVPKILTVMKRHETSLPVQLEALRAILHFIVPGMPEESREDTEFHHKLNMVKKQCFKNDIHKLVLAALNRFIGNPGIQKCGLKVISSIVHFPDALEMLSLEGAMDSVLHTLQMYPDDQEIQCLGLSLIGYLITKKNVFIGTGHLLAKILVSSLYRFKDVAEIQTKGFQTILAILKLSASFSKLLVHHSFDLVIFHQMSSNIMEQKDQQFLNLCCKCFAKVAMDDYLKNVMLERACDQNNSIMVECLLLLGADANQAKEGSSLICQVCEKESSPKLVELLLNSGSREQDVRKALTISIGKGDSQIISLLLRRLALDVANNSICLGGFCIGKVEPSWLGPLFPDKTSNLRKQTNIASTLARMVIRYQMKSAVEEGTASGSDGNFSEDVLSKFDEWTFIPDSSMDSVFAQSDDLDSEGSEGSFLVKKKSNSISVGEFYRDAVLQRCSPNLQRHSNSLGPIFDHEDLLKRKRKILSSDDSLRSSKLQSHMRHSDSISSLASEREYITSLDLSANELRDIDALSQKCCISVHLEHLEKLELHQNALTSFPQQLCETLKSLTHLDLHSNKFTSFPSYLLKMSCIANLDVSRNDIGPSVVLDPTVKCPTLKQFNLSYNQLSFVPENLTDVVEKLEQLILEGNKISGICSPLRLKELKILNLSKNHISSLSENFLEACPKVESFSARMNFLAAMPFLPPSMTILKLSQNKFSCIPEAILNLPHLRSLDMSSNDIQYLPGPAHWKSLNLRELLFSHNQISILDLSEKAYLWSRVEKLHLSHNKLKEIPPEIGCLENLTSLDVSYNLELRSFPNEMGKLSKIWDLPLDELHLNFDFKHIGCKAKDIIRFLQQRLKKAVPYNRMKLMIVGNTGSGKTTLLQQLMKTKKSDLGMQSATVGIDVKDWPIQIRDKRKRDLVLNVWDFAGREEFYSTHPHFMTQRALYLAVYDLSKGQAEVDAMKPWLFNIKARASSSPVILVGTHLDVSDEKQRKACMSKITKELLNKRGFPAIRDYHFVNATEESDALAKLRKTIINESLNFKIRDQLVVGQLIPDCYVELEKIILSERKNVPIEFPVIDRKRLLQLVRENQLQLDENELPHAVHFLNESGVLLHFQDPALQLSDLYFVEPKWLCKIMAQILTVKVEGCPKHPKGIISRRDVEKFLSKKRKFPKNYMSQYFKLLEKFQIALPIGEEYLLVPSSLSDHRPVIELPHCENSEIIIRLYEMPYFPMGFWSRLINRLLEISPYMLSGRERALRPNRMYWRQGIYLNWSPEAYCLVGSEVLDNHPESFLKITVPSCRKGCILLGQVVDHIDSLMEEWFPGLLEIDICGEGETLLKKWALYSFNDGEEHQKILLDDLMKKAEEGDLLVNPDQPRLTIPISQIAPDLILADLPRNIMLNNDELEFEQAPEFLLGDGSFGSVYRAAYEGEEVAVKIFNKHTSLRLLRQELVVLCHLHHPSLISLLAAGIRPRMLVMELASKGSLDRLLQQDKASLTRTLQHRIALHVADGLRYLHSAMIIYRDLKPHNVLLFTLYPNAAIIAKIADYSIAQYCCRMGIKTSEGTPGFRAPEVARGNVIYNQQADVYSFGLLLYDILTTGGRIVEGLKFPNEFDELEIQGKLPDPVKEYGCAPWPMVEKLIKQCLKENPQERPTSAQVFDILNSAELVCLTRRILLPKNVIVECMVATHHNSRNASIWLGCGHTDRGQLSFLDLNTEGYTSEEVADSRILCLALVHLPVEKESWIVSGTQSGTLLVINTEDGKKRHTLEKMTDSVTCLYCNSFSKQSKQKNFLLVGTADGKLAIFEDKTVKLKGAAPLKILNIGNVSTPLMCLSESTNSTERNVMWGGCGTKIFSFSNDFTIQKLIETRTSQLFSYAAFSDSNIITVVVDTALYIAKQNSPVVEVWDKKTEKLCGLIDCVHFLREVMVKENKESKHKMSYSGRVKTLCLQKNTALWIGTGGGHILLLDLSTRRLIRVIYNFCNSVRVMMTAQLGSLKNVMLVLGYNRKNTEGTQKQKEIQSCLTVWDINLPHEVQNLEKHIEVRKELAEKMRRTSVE
The data set can be described thus: Immunoprecipitation/Western analysis of LRRK2 phosphorylation at Ser910, Ser935, Ser955, Ser973 in HEK293 T-REx GFP-LRRK2 G2019S cells. It is filed as cell-based. To be noted: 20 µM, 90 min, HEK293 GFP-LRRK2 G2019S, Figure 6. Here is the method: Immunoblot analysis: BacMam LRRK2-GFP transduced U-2 OS or SH-SY5Y cells (10^7 cells) were left untreated or treated with 3 µM LRRK2-IN-I for 90 min. For lysate preparation, the cells were washed once with ice-cold PBS and lysed by addition of ice-cold lysis buffer (20 mM Tris-HCl, pH 7.4, 1% NP-40, 5 mM EDTA, 5 mM NaF, 150 mM NaCl, and 1∶100 of protease and phosphatase inhibitor cocktails). The lysate was cleared of debris by centrifugation. Equal amount of total protein was loaded onto each lane for SDS-PAGE (3–8% Tris Acetate). The proteins were transferred onto nitrocellulose membrane using the iBLOT® dry blotting system (Life Technologies) according to manufacturer’s protocol. The membranes were blocked and incubated with a primary antibody against LRRK2 (Cell Signaling Technologies), followed by incubation with alkaline phosphatase-conjugated secondary antibody (WesternBreeze® chromogenic Kit, Life Technologies). The blot was developed by using the chromogenic BCIP/NBT substrate (WesternBreeze® chromogenic Kit, Life Technologies). […] Two days post induction, cells were treated for 90 minutes in the presence of 20 µM of compound or DMSO vehicle control. Cells were rapidly lysed in ice cold lysis buffer 50 mM Tris/HCl, pH 7.5, 1 mM EGTA, 1 mM EDTA, […] 1 mM sodium orthovanadate, 10 mM sodium beta-glycerolphosphate, 50 mM NaF, 5 mM sodium pyrophosphate, 0.27 M sucrose, 1 mM benzamidine and 2 mM phenylmethanesulphonylfluoride (PMSF) and one tablet each complete protease inhibitor and PhosSTOP phosphatase inhibitor (Roche) and was supplemented with 1% (v/v) Triton X-100. GFP-LRRK2 was immunoprecipitated with GFP nanotrap beads (ChromoTek). Immunecomplexes were washed twice with lysis buffer supplemented with 300 mM NaCl and once with Buffer A (50 mM Tris/HCl, pH 7.5, 50 mM NaCl, 0.1 mM EGTA and 0.1% (v/v) 2-mercaptoethanol, and 0.27 M sucrose).

Data set [9] can be described thus: Cytotoxicity assay (resazurin-based cell viability). To be noted: human. On the technique in general: Alamar Blue is a resazurin reagent that responds to reducing activity.
The mark [10] stands for this setting: SH-SY5Y, G2019S, +/- SD, * = partial inhibition, read-out: IC50, TR-FRET cell-based assay for Ser935 phosphorylation of LRRK2.
The mark [11] stands for this setting: SH-SY5Y, Tocriscreen Mini library screen, 20 µM, SH-SY5Y G2019S, relative to LRRK2-IN-1 control.
Setting [12] is: dose-response follow-up, SH-SY5Y G2019S.
The mark [13] stands for this setting: dose-response follow-up, SH-SY5Y G2019S, read-out: Cellular TR-FRET Assay IC50 +/-SD.

T1 sequence (Q5S007 whole entry): as the sequence (Q5S007 whole entry G2019S) above, with S2019G counted along it
T2 sequence (Q5S007 whole entry G2019S): as the sequence (Q5S007 whole entry G2019S) above

On to `O=S(=O)(NCCNC/C=C/c1ccc(Br)cc1)c1cccc2cnccc12` [H-89], for which the “effect on the phosphorylation of Ser935 in the TR-FRET cellular assay” value in data set [1] is “no effect”. In addition, the IC50 at LRRK2 wild-type [2], on LRRK2 wild-type [3], at LRRK2 G2019S [4] (setting [10]) and at LRRK2 G2019S [5] was greater than 20 µM each time.
`O=Nc1c(-c2c(O)[nH]c3ccccc23)[nH]c2ccccc12` [Indirubin-3-monoxime, Indirubin-3′-monoxime]: the IC50 was greater than 10 µM on LRRK2 G2019S [6]; greater than 20 µM in the data set “in vitro”; 3.78 µM on LRRK2 wild-type [2]; greater than 10 µM on LRRK2 wild-type [3]; 6.15 µM at LRRK2 G2019S [4] (setting [10]); 4.4 µM on LRRK2 G2019S [4] (setting [13]). Also, the results for the IC50 at LRRK2 wild-type [7], at LRRK2 G2019S [8] and at LRRK2 G2019S [5] were 3.68 µM, 2.78 µM and 1.93 µM, respectively. Moreover, the “effect on LRRK2 activity in vitro” value on LRRK2 G2019S [6] (result in words) is “did not repress LRRK2 activity in vitro”. Besides, the inhibition at 20 µM on LRRK2 G2019S [4] (setting [11]) was found to be 63.5%. On LRRK2 G2019S [4] (setting [12]), the “Cellular TR-FRET Assay Max % Inhibition” value came out at 64%.
Regarding `Oc1c2ccccc2c2c3c(cccc13)N=N2` [SP 600125], the IC50 at LRRK2 G2019S [6] is 0.22 µM; in data set [9] it was greater than 20 µM; at LRRK2 G2019S [4] (setting [13]), 1 µM. Also, at GFP-LRRK2 G2019S, the “effect on phosphorylation of Ser910, Ser935, Ser955 and Ser973 (IP-Western)” value was “inhibited phosphorylation of Ser910, Ser935, Ser955 and Ser973”. In addition, the inhibition at 20 µM on LRRK2 G2019S [4] (setting [11]) was found to be 88%. Also, the “%Inhibition Initial screen” value at LRRK2 G2019S [4] (Tocriscreen Mini library screen, 20 µM, SH-SY5Y G2019S, relative to LRRK2-IN-1 control) is on record as 88.3%. For the same compound, on LRRK2 G2019S [4] (setting [12]), the “Cellular TR-FRET Assay Max % Inhibition” value is on record as 103%.
